Here are results for 24 compounds from patent US9862707B2, “TrkA kinase inhibitors, compositions and methods thereof” (Merck Sharp & Dohme Corp., priority 2014, dated 2018).

Chain of human TrkA receptor (P04629 33-796): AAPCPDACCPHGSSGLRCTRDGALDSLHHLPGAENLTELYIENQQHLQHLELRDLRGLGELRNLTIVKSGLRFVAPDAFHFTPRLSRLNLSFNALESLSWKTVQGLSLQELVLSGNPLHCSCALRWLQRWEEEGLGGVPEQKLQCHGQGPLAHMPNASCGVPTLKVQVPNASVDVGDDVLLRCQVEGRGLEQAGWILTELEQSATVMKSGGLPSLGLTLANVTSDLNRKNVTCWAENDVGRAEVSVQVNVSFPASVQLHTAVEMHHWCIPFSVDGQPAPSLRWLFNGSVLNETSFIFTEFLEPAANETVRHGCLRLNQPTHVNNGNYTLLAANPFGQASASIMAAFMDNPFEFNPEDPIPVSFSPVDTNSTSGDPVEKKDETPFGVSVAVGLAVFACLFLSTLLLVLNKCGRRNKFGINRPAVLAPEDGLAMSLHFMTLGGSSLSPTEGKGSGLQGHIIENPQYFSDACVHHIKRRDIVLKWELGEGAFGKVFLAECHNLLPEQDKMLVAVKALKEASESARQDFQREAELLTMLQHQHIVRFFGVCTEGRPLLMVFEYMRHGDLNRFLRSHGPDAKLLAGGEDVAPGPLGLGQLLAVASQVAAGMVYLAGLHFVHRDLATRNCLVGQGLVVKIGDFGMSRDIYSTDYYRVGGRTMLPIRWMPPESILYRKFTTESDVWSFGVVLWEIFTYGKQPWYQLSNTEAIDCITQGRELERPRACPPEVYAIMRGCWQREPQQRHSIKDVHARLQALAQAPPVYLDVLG

The experiment concerns the target human TrkA receptor (Homo sapiens (Human), UniProt P04629). The experiment can be described thus: TrkA functional activity, DiscoverX PathHunter assay. It is filed as cell-based. The conditions noted are these: U2OS cells expressing human TrkA-PK, Shc1-EA and p75NTR; compound 1 h, then NGF at ~80% of maximal response for 3 h; luminescence.
As usually defined, the IC50 is the point on the concentration scale where inhibition reaches its midpoint. A high value points to weaker potency. For `CC(O)c1ccc2c(NC(=O)c3cc(-c4ncccn4)c(C(F)(F)F)cc3F)n(-c3ccccc3)nc2c1` (single isomer, unassigned) [Compound 19, (R and S)-2-Fluoro-N-(6-(1-hydroxyethyl)-2-phenyl-2H-indazol-3-yl)-5-(pyrimidin-2-yl)-4-(trifluoromethyl)benzamide, isomers A and B], 1.9 nM corresponded to half-maximal inhibition (IC50).
On to `CC(O)c1ccc2c(NC(=O)c3cc(-c4ncccn4)c(C(F)(F)F)cc3F)n(-c3ccccc3)nc2c1` (single isomer, unassigned) [Compound 20, (R and S)-2-Fluoro-N-(6-(1-hydroxyethyl)-2-phenyl-2H-indazol-3-yl)-5-(pyrimidin-2-yl)-4-(trifluoromethyl)benzamide, isomers A and B], for which the IC50 was 2.9 nM.
`CC(O)c1cnc2c(NC(=O)c3cc(-c4cc[nH]n4)c(C(F)(F)F)cc3F)n(-c3ccccc3)nc2c1` (single isomer, unassigned) [Compound 21, 2-Fluoro-N-(6-(1-hydroxyethyl)-2-phenyl-2H-pyrazolo[4,3-b]pyridin-3-yl)-5-(1H-pyrazol-3-yl)-4-(trifluoromethyl)benzamide, isomers A and B] came in with an IC50 of 0.69 nM.
`CC(O)c1cnc2c(NC(=O)c3cc(-c4cc[nH]n4)c(C(F)(F)F)cc3F)n(-c3ccccc3)nc2c1` (single isomer, unassigned) [Compound 22, 2-Fluoro-N-(6-(1-hydroxyethyl)-2-phenyl-2H-pyrazolo[4,3-b]pyridin-3-yl)-5-(1H-pyrazol-3-yl)-4-(trifluoromethyl)benzamide, isomers A and B] displayed a concentration for half-maximal inhibition (IC50) of 1.2 nM.
Then `O=C(Nc1c2ccc(C(O)C(F)(F)F)cc2nn1-c1ccccc1)c1cc(-c2ncccn2)c(C(F)(F)F)cc1F` (single isomer, unassigned) [Compound 52, (R or S)-2-Fluoro-N-{2-phenyl-6-[(1S)-2,2,2-trifluoro-1-hydroxyethyl]-2H-indazol-3-yl}-5-pyrimidin-2-yl-4-(trifluoromethyl)benzamide, isomers A and B], with 2.8 nM; and `O=C(Nc1c2ccc(C(O)C(F)(F)F)cc2nn1-c1ccccc1)c1cc(-c2ncccn2)c(C(F)(F)F)cc1F` (single isomer, unassigned) [Compound 53, (R or S)-2-Fluoro-N-{2-phenyl-6-[(1S)-2,2,2-trifluoro-1-hydroxyethyl]-2H-indazol-3-yl}-5-pyrimidin-2-yl-4-(trifluoromethyl)benzamide, isomers A and B], with 29 nM; and `CC(N)c1ccc2c(NC(=O)c3cc(-c4ncccn4)c(C(F)(F)F)cc3F)n(-c3ccccc3)nc2c1` (single isomer, unassigned) [Compound 69, (R or S)-N-{6-[1-aminoethyl]-2-phenyl-2H-indazol-3-yl}-2-fluoro-5-pyrimidin-2-yl-4-(trifluoromethyl)benzamide], with 7.1 nM.
In turn, `CC(N)c1ccc2c(NC(=O)c3cc(-c4ncccn4)c(C(F)(F)F)cc3F)n(-c3ccccc3)nc2c1` (single isomer, unassigned) [Compound 70, (R or S)-N-{6-[1-aminoethyl]-2-phenyl-2H-indazol-3-yl}-2-fluoro-5-pyrimidin-2-yl-4-(trifluoromethyl)benzamide] returned an IC50 of 14 nM.
Regarding `O=C(Nc1c2ccc(C3CCCN3)cc2nn1-c1ccccc1)c1cc(-c2ncccn2)c(C(F)(F)F)cc1F` (single isomer, unassigned) [Compound 102, (R and S)-2-Fluoro-N-(2-phenyl-6-(pyrrolidin-2-yl)-2H-indazol-3-yl)-5-(pyrimidin-2-yl)-4-(trifluoromethyl)benzamide, isomers A and B], inhibition was half-maximal at 29 nM (IC50).
In the case of `O=C(Nc1c2ccc(C3CCCN3)cc2nn1-c1ccccc1)c1cc(-c2ncccn2)c(C(F)(F)F)cc1F` (single isomer, unassigned) [Compound 103, (R and S)-2-Fluoro-N-(2-phenyl-6-(pyrrolidin-2-yl)-2H-indazol-3-yl)-5-(pyrimidin-2-yl)-4-(trifluoromethyl)benzamide, isomers A and B], the midpoint of inhibition, the IC50, lay at 29 nM.
`CC(O)c1ccc2nn(-c3ccccc3)c(NC(=O)c3ccc(C(F)(F)F)c(-c4ccn(C)n4)c3)c2c1` (single isomer, unassigned; isomer a) [Compound 23, (R or S)-N-[5-(1-hydroxyethyl)-2-phenyl-2H-indazol-3-yl]-3-(1-methyl-1H-pyrazol-3-yl)-4-(trifluoromethyl)benzamide, isomer A] registered an IC50 of 3.7 nM.
For the compound `CC(O)c1cnc2c(NC(=O)c3cc(-c4ncccn4)c(C(F)(F)F)cc3F)n(-c3ccccc3)nc2c1` (single isomer, unassigned; isomer a) [Compound 29, (R or S)-2-fluoro-N-[6-(1-hydroxyethyl)-2-phenyl-2H-pyrazolo[4,3-b]pyridin-3-yl]-5-pyrimidin-2-yl-4-(trifluoromethyl)benzamide, isomer A], the half-inhibitory concentration (IC50) was determined as 1.8 nM.
In the case of `CC(O)c1ccc2nn(-c3ccccc3)c(NC(=O)c3cc(-c4cc[nH]n4)c(C(F)(F)F)cc3F)c2n1` (single isomer, unassigned; isomer a) [Compound 31, (R or S)-2-fluoro-N-[5-(1-hydroxyethyl)-2-phenyl-2H-pyrazolo[4,3-b]pyridin-3-yl]-5-(1H-pyrazol-3-yl)-4-(trifluoromethyl)benzamide, isomer A], it took 5.2 nM to reach half-maximal inhibition (IC50).
As for `CC(O)c1cnc2c(NC(=O)c3cc(-c4ccn(C)n4)c(C(F)(F)F)cc3F)n(-c3ccccc3)nc2c1` (single isomer, unassigned; isomer a) [Compound 33, (R or S)-2-fluoro-N-[6-(1-hydroxyethyl)-2-phenyl-2H-pyrazolo[4,3-b]pyridin-3-yl]-5-(1-methyl-1H-pyrazol-3-yl)-4-(trifluoromethyl)benzamide, isomer A], it took 0.25 nM to reach half-maximal inhibition (IC50).
For `CC(O)c1cnc2c(NC(=O)c3cc(-c4ncccn4)c(C(F)(F)F)cc3Cl)n(-c3ccccc3)nc2c1` (single isomer, unassigned; isomer a) [Compound 35, (R or S)-2-chloro-N-[6-(1-hydroxyethyl)-2-phenyl-2H-pyrazolo[4,3-b]pyridin-3-yl]-5-pyrimidin-2-yl-4-(trifluoromethyl)benzamide, isomer A] the value was 1.7 nM; for `CC(O)c1ccc2c(NC(=O)c3cc(-c4ncccn4)c(C(F)(F)F)cc3Cl)n(-c3ccccc3)nc2c1` (single isomer, unassigned; isomer a) [Compound 37, (R or S)-2-chloro-N-[6-(1-hydroxyethyl)-2-phenyl-2H-indazol-3-yl]-5-pyrimidin-2-yl-4-(trifluoromethyl)benzamide, isomer A], 4.4 nM.
`O=C(Nc1c2cc(C(O)C(F)(F)F)ccc2nn1-c1ccccc1)c1cc(-c2ncccn2)c(C(F)(F)F)cc1F` (single isomer, unassigned; isomer a) [Compound 54, (R or S)-2-fluoro-N-(2-phenyl-5-(2,2,2-trifluoro-1-hydroxyethyl)-2H-indazol-3-yl)-5-(pyrimidin-2-yl)-4-(trifluoromethyl)benzamide, isomer A] registered an IC50 of 23 nM.
For `O=C(Nc1c2ccc(C(O)C(F)F)cc2nn1-c1ccccc1)c1cc(-c2ncccn2)c(C(F)(F)F)cc1F` (single isomer, unassigned; isomer a) [Compound 56, (R or S)-N-[6-(2,2-difluoro-1-hydroxyethyl)-2-phenyl-2H-indazol-3-yl]-2-fluoro-5-pyrimidin-2-yl-4-(trifluoromethyl)benzamide, isomer A] the value was 2.8 nM.
`O=C(Nc1c2cc(C(O)C(F)F)ccc2nn1-c1ccccc1)c1cc(-c2ncccn2)c(C(F)(F)F)cc1F` (single isomer, unassigned; isomer a) [Compound 58, (R or S)-N-[5-(2,2-difluoro-1-hydroxyethyl)-2-phenyl-2H-indazol-3-yl]-2-fluoro-5-pyrimidin-2-yl-4-(trifluoromethyl)benzamide, isomer A]: the IC50 came out at 6.9 nM.
`O=C(Nc1c2ncc(C(O)CO)cc2nn1-c1ccccc1)c1cc(-c2ncccn2)c(C(F)(F)F)cc1Cl` (single isomer, unassigned; isomer a) [Compound 64, (R or S)-2-chloro-N-[6-(1,2-dihydroxyethyl)-2-phenyl-2H-pyrazolo[4,3-b]pyridin-3-yl]-5-pyrimidin-2-yl-4-(trifluoromethyl)benzamide, isomer A] displayed a half-inhibitory concentration (IC50) of 15 nM.
`CC(O)c1ccc2nn(-c3ccccc3)c(NC(=O)c3ccc(C(F)(F)F)c(-c4ccn(C)n4)c3)c2c1` (single isomer, unassigned; isomer b) [Compound 24, (R or S)-N-[5-(1-hydroxyethyl)-2-phenyl-2H-indazol-3-yl]-3-(1-methyl-1H-pyrazol-3-yl)-4-(trifluoromethyl)benzamide, isomer B] came in with a concentration for half-maximal inhibition (IC50) of 2.4 nM.
The compound `CC(O)c1cnc2c(NC(=O)c3cc(-c4ncccn4)c(C(F)(F)F)cc3F)n(-c3ccccc3)nc2c1` (single isomer, unassigned; isomer b) [Compound 30, (R or S)-2-fluoro-N-[6-(1-hydroxyethyl)-2-phenyl-2H-pyrazolo[4,3-b]pyridin-3-yl]-5-pyrimidin-2-yl-4-(trifluoromethyl)benzamide, isomer B] showed an IC50 of 1.1 nM.
Compound `CC(O)c1ccc2nn(-c3ccccc3)c(NC(=O)c3cc(-c4cc[nH]n4)c(C(F)(F)F)cc3F)c2n1` (single isomer, unassigned; isomer b) [Compound 32, (R or S)-2-fluoro-N-[5-(1-hydroxyethyl)-2-phenyl-2H-pyrazolo[4,3-b]pyridin-3-yl]-5-(1H-pyrazol-3-yl)-4-(trifluoromethyl)benzamide, isomer B] displayed a 50% inhibitory concentration (IC50) of 5.1 nM.
Regarding `CC(O)c1cnc2c(NC(=O)c3cc(-c4ccn(C)n4)c(C(F)(F)F)cc3F)n(-c3ccccc3)nc2c1` (single isomer, unassigned; isomer b) [Compound 34, (R or S)-2-fluoro-N-[6-(1-hydroxyethyl)-2-phenyl-2H-pyrazolo[4,3-b]pyridin-3-yl]-5-(1-methyl-1H-pyrazol-3-yl)-4-(trifluoromethyl)benzamide, isomer B], half-maximal inhibition (IC50) was put at 0.48 nM.
